≈ marks a conversion by molar mass, not a printed value.
Conditions: buffer; pH 7.4; 200.0 µM
In the case of `Cc1cccc(Cc2ncc(C(F)(F)F)cc2Cl)c1`, the solubility kinetic is reported as less than 0.6 µg/mL.
For `NS(=O)(=O)c1cccc(NC(=O)COC(=O)c2ccccc2SCC(=O)N2CCCC2)c1`, the solubility kinetic was greater than 71.6 µg/mL.
`Clc1cc2nc[nH]c2cc1Cl` gave a solubility kinetic greater than 28.1 µg/mL.
Compound `CC(=O)Nc1ccc(S(=O)(=O)N(C)CC(=O)NCCOc2ccccc2)cc1` has a solubility kinetic greater than 60.8 µg/mL.
Compound `O=c1[nH]c(/C=C\c2ccccc2F)nc(O)c1[N+](=O)[O-]` has a solubility kinetic greater than 41.6 µg/mL.
Compound `CN(CCc1ccccn1)C(=O)c1cccnc1Oc1ccccc1` has a solubility kinetic greater than 50 µg/mL.
With `CCn1c(C)cc(=O)cc1-c1ccc(Cl)cc1` the solubility kinetic was greater than 37.2 µg/mL.
Work on `Cc1nn(C)c2ncc(C(N)=O)c(Oc3cccnc3)c12` yielded a solubility kinetic greater than 42.5 µg/mL.
In the case of `CCOc1ccc2[nH]c(C)c(CN3CCCCCC3)c(=O)c2c1`, the solubility kinetic is reported as greater than 47.2 µg/mL.
In the case of `CNC(=O)CCN(Cc1ccco1)S(=O)(=O)c1ccc(OC)c(OC)c1`, the solubility kinetic is reported as 56.2 µg/mL (≈ 147 µM).
Work on `Cc1ccc(CNC(=O)C2CCCC2)cc1` yielded a solubility kinetic of 27.5 µg/mL (≈ 127 µM).
In the case of `CN(C(=O)CSc1cccc[n+]1[O-])c1ccccc1`, the solubility kinetic is reported as 35.5 µg/mL (≈ 129 µM).
For `COc1cc(C(=O)COC(=O)c2ccc([N+](=O)[O-])o2)cc(OC)c1OC`, the solubility kinetic was greater than 54.8 µg/mL.
Compound `CC(=O)NC(C(=O)N1CCC(c2nc3ccccc3s2)CC1)C(C)C` (stereo not given) has a solubility kinetic of 51.1 µg/mL (≈ 142 µM).
With `Cc1ccccc1NC(=O)Cn1c(=O)sc2ccccc21` the solubility kinetic was 1.9 µg/mL (≈ 6.37 µM).
For `CCOC(=O)c1cc(S(=O)(=O)N2CCCC2)cn1C`, the solubility kinetic was 22.4 µg/mL (≈ 78.2 µM).
With `CCOc1ccccc1N1CC(C(=O)N2CCOCC2)CC1=O` (stereo not given) the solubility kinetic was 44.6 µg/mL (≈ 140 µM).
Work on `Cc1cc(C)cc(N2C(=O)CC(Sc3ccccc3C(=O)O)C2=O)c1` (stereo not given) yielded a solubility kinetic of 52.4 µg/mL (≈ 147 µM).
`O=C(Nc1nc2c(Cl)cccc2s1)C1CC1` showed a solubility kinetic of 1.3 µg/mL (≈ 5.14 µM).
`Nc1ccc(-c2cnc[nH]2)cc1[N+](=O)[O-]` gave a solubility kinetic greater than 30.6 µg/mL.
In the case of `CC1CCCCN1C(=O)c1ccc(Br)o1` (stereo not given), the solubility kinetic is reported as 37.7 µg/mL (≈ 139 µM).
`CC(=O)Oc1cccc(N2C(=O)C3C4C=CC(CC4)C3C2=O)c1` (stereo not given) showed a solubility kinetic of 32.8 µg/mL (≈ 105 µM).
Compound `C[n+]1cc(-c2ccccc2)oc1-c1ccccc1` has a solubility kinetic of 24.4 µg/mL.
With `CCc1ccccc1NC(=S)N1CCCCCC1` the solubility kinetic was greater than 39.4 µg/mL.
`CCCC1NC(C(=O)O)Cc2c1[nH]c1ccccc21` (stereo not given) showed a solubility kinetic of 37.3 µg/mL (≈ 144 µM).
With `O=C(COc1ccccc1Cl)NCCCNC(=O)c1cnccn1` the solubility kinetic was 51.5 µg/mL (≈ 148 µM).
`Cc1ccc(C(=O)c2nccn2C)cc1C` showed a solubility kinetic greater than 32.1 µg/mL.
Work on `CN(C)/C=C/C(=O)c1ccc(F)cc1F` yielded a solubility kinetic greater than 31.7 µg/mL.
Work on `O=[N+]([O-])c1ccc(N2CCN(c3ccc(O)cc3)CC2)cn1` yielded a solubility kinetic greater than 45 µg/mL.
Compound `Cc1ccc2ccc(S(=O)(=O)NCc3ccccn3)cc2c1` has a solubility kinetic of 7 µg/mL (≈ 22.4 µM).
`CC(C)C(=O)Nc1c(-c2ccccc2)c(=O)c2ccccc2n1C` gave a solubility kinetic of 9.2 µg/mL (≈ 28.7 µM).
Work on `Cc1cc(NC(=O)CN(C)S(=O)(=O)c2cccc(Cl)c2)no1` yielded a solubility kinetic of 10.5 µg/mL (≈ 30.5 µM).
For `COc1cc2c(C#N)c(N3CCc4ccccc4C3)nc(N)c2c(N)n1`, the solubility kinetic was 1.6 µg/mL (≈ 4.62 µM).
With `Cc1ccc2nc(-c3ccccc3)c(CN3CCOCC3)n2c1` the solubility kinetic was greater than 46.1 µg/mL.
`Cn1c2ccc(F)cc2c2ncn(CC3CCCO3)c(=O)c21` (stereo not given) showed a solubility kinetic of 4 µg/mL (≈ 13.3 µM).
Compound `Cc1ccc(CNC(=O)Nc2ccc(F)cc2)n1C` has a solubility kinetic greater than 39.2 µg/mL.
Compound `Cc1noc(C)c1S(=O)(=O)N(Cc1ccccc1)C(C)C` has a solubility kinetic of 36.5 µg/mL (≈ 118 µM).
In the case of `O=C(CCS(=O)(=O)c1ccccc1)Nc1ccc(S(=O)(=O)Nc2nccs2)cc1`, the solubility kinetic is reported as 23.6 µg/mL (≈ 52.3 µM).
Work on `COc1ccccc1C(=O)NCC(=O)N1CC=C(c2ccccc2)CC1` yielded a solubility kinetic of 4.5 µg/mL (≈ 12.8 µM).
`O=C(c1ccco1)N1CCN(c2ccc([N+](=O)[O-])cc2F)CC1` showed a solubility kinetic of 7 µg/mL (≈ 21.9 µM).
With `CCN1C(=O)CCC(C(=O)O)C1c1ccc(OC)cc1` (stereo not given) the solubility kinetic was greater than 41.6 µg/mL.
`O=C1CN(S(=O)(=O)c2cccc(Br)c2)CCN1` gave a solubility kinetic greater than 47.9 µg/mL.
`O=C(Cc1ccc(Cl)c(Cl)c1)Nc1cccc2ncccc12` gave a solubility kinetic of 2.1 µg/mL (≈ 6.34 µM).
In the case of `Cc1ccc(-c2nc3ncccc3o2)cc1NC(=O)c1cccnc1`, the solubility kinetic is reported as 7.6 µg/mL (≈ 23 µM).
With `COC(=O)c1ccc2c(=O)n(-c3ccc(OC)cc3)c(=S)[nH]c2c1` the solubility kinetic was 1.5 µg/mL (≈ 4.38 µM).
`COc1ccccc1Nc1nc(-c2cccnc2)cs1` gave a solubility kinetic of 1 µg/mL (≈ 3.53 µM).
For `CC(=O)c1ccc(NC(=O)C(Cc2ccccc2)n2cccc2)cc1` (stereo not given), the solubility kinetic was 1.6 µg/mL (≈ 4.81 µM).
In the case of `O=[N+]([O-])c1cccc(/C=C/c2ccc3cccc(O)c3n2)c1`, the solubility kinetic is reported as less than 0.3 µg/mL.
Work on `COC(=O)Cn1cc(/C=C/[N+](=O)[O-])c2ccccc21` yielded a solubility kinetic of 30.6 µg/mL (≈ 118 µM).
Compound `COCCNC(=S)N1CCC(C(=O)c2ccc(C)cc2)CC1` has a solubility kinetic of 43.2 µg/mL (≈ 135 µM).
Compound `CN(C(=O)c1ccc(COc2ccccc2Cl)o1)c1ccccc1` has a solubility kinetic of 8.8 µg/mL (≈ 25.7 µM).
In the case of `O=C(O)/C=C/C(=O)Nc1ccc(OC(F)(F)F)cc1Br`, the solubility kinetic is reported as greater than 53.1 µg/mL.
Work on `Cc1ccc(C(=O)N2CCCCC2C(=O)O)o1` (stereo not given) yielded a solubility kinetic greater than 35.6 µg/mL.
With `CSc1ncccc1C(=O)OCC(=O)N1CCc2ccccc21` the solubility kinetic was 2 µg/mL (≈ 6.09 µM).
For `COc1ccc(NC2=NCCCS2)cc1OC`, the solubility kinetic was greater than 37.8 µg/mL.
`Cc1cccc(C(=O)OCC(=O)NCCCc2ccccc2)c1O` showed a solubility kinetic of 12.3 µg/mL (≈ 37.6 µM).
`CCC(C)c1ccc(NC(=O)C2CC3CCC2C3)cc1` (stereo not given) showed a solubility kinetic of 1.3 µg/mL (≈ 4.79 µM).
Work on `CCCNC(=O)Nc1cccc(C(=O)OC)c1` yielded a solubility kinetic greater than 35.4 µg/mL.
With `CN(C)/C=C1\SC(=S)N(c2ccc(F)cc2)C1=O` the solubility kinetic was 12.6 µg/mL (≈ 44.6 µM).
Work on `Cc1ccc(-c2nc(NCCN(C)C)c3ccccc3n2)cc1` yielded a solubility kinetic greater than 46 µg/mL.
